Laboratory results taken from US8709999B2, “Substituted bicyclic HCV inhibitors” (Presidio Pharmaceuticals, Inc., priority 2009, dated 2014).

Test system: HCV 1b_Huh-Luc/Neo-ET cell line (bicistronic genotype 1b replicon in Huh 7 cells)
Test: HCV replicon assay (luciferase readout)
Format: cell-based, HCV genotype 1b
Conditions: Hepatitis C virus, Huh-7, 72 h, read-out: Inhibition of HCB genotype 1b
Procedure: Biological activity of the compounds of the invention was determined using an HCV replicon assay. The HCV 1b_Huh-Luc/Neo-ET cell line persistently expressing a bicistronic genotype 1b replicon in Huh 7 cells was obtained from ReBLikon GMBH. This cell line was used to test compound inhibition using luciferase enzyme activity readout as a measurement of compound inhibition of replicon levels.
On Day 1 (the day after plating cells), each compound is added in triplicate to the cells. Plates are incubated for 72 h prior to determining luciferase levels. Enzyme activity was measured using a Bright-Glo Kit (cat. number E2620) manufactured by Promega Corporation. The following equation was used to generate a percent control value for each compound. % Control=(Compound Luciferase Level/Control Luciferase Level)*100
The EC50 value was determined using GraphPad Prism and the following equation: Y=Bottom asymptote+(Top asymptote−Bottom asymptote)/(1+10^((LogEC50−X)*HillSlope))
EC50 values of compounds are determined several times in the replicon assay to generate average EC50 values.

**Q.** How did the EC50 turn out when `COCCOc1c(-c2ccc(-c3cnc([C@@H]4CCCN4C(=O)[C@@H](c4ccccc4)N4CCCC4)[nH]3)cc2)ccc(-c2cnc([C@@H]3CCCN3C(=O)[C@@H](c3ccccc3)N3CCCC3)[nH]2)c1OCCOC` [Compound 16] was run?
**A.** 1 to 9.9 nM

**Q.** How did the EC50 turn out when `COCCOc1cc(-c2cnc([C@@H]3CCCN3C(=O)[C@@H](NC(=O)OC)C3CCCCC3)[nH]2)ccc1-c1ccc(-c2cnc([C@@H]3CCCN3C(=O)[C@@H](NC(=O)OC)C3CCCCC3)[nH]2)cc1OCCOC` [Compound 9] was run?
**A.** < 1 nM

**Q.** With `CC[C@H](C)[C@H](NC(=O)OC)C(=O)N1CCC[C@H]1c1ncc(-c2ccc(-c3ccc(-c4cnc([C@@H]5CCCN5C(=O)[C@@H](NC(=O)OC)[C@@H](C)CC)[nH]4)cc3OCCOC)c(OCCOC)c2)[nH]1` [Compound 7] as the compound, how does the EC50 read?
**A.** < 1 nM

**Q.** With `COCCOc1cc(-c2cnc([C@@H]3CCCN3C(=O)[C@H](C)NC(=O)OC)[nH]2)ccc1-c1ccc(-c2cnc([C@@H]3CCCN3C(=O)[C@H](C)NC(=O)OC)[nH]2)cc1OCCOC` [Compound 6] as the compound, how does the EC50 read?
**A.** 10 to 999 nM

**Q.** Which EC50 does the source give for `COCCOc1c(-c2ccc(-c3cnc([C@@H]4CCCN4C(=O)[C@H](COC)NC(=O)OC)[nH]3)cc2)ccc(-c2cnc([C@@H]3CCCN3C(=O)[C@H](COC)NC(=O)OC)[nH]2)c1OCCOC` [Compound 11] here?
**A.** 10 to 999 nM

**Q.** Which EC50 does the source give for `COCCOc1c(-c2ccc(-c3cnc([C@@H]4CCCN4C(=O)[C@@H](NC(=O)OC)C(C)C)[nH]3)cc2)ccc(-c2cnc([C@@H]3CCCN3C(=O)[C@H](C)NC(=O)OC)[nH]2)c1OCCOC` [Compound 18] here?
**A.** 1 to 9.9 nM

**Q.** How did the EC50 turn out when `COCCOc1c(-c2ccc(-c3cnc([C@@H]4CCCN4C(=O)[C@@H](NC(=O)OC)C4CCCC4)[nH]3)cc2)ccc(-c2cnc([C@@H]3CCCN3C(=O)[C@@H](NC(=O)OC)C3CCCC3)[nH]2)c1OCCOC` [Compound 4] was run?
**A.** < 1 nM

**Q.** With `COCCOc1c(-c2ccc(-c3cnc([C@@H]4CCCN4C(=O)[C@@H](NC(=O)OC)[C@@H](C)OC)[nH]3)cc2)ccc(-c2cnc([C@@H]3CCCN3C(=O)[C@@H](NC(=O)OC)[C@@H](C)OC)[nH]2)c1OCCOC` [Compound 12] as the compound, how does the EC50 read?
**A.** 1 to 9.9 nM

**Q.** With `CC[C@H](C)[C@H](NC(=O)OC)C(=O)N1CCC[C@H]1c1ncc(-c2ccc(-c3ccc(-c4cnc([C@@H]5CCCN5C(=O)[C@@H](NC(=O)OC)C(C)C)[nH]4)cc3)c(OCCOC)c2OCCOC)[nH]1` [Compound 19] as the compound, how does the EC50 read?
**A.** < 1 nM

**Q.** With `COCCOc1c(-c2ccc(-c3cnc([C@@H]4CCCN4C(=O)[C@@H](NC(=O)OC)C(C)(C)C)[nH]3)cc2)ccc(-c2cnc([C@@H]3CCCN3C(=O)[C@@H](NC(=O)OC)C(C)(C)C)[nH]2)c1OCCOC` [Compound 13] as the compound, how does the EC50 read?
**A.** 1 to 9.9 nM

**Q.** With `COCCOc1c(-c2ccc(-c3cnc([C@@H]4CCCN4C(=O)[C@@H](NC(=O)OC)C(C)C)[nH]3)cc2)ccc(-c2cnc([C@@H]3CCCN3C(=O)[C@@H](NC(=O)OC)C(C)C)[nH]2)c1OCCOC` [Compound 2] as the compound, how does the EC50 read?
**A.** < 1 nM

**Q.** With `CC[C@H](C)[C@H](NC(=O)OC)C(=O)N1CCC[C@H]1c1ncc(-c2ccc(-c3ccc(-c4cnc([C@@H]5CCCN5C(=O)[C@@H](NC(=O)OC)[C@@H](C)CC)[nH]4)c(OCCOC)c3OCCOC)cc2)[nH]1` [Compound 3] as the compound, how does the EC50 read?
**A.** < 1 nM

**Q.** How did the EC50 turn out when `COCCOc1c(-c2ccc(-c3cnc([C@@H]4CCCN4C(=O)[C@H](NS(C)(=O)=O)c4ccccc4)[nH]3)cc2)ccc(-c2cnc([C@@H]3CCCN3C(=O)[C@H](NS(C)(=O)=O)c3ccccc3)[nH]2)c1OCCOC` [Compound 17] was run?
**A.** < 1 nM

**Q.** How did the EC50 turn out when `COCCOc1cc(-c2cnc([C@@H]3CCCN3C(=O)[C@@H](NC(=O)OC)C3CCCC3)[nH]2)ccc1-c1ccc(-c2cnc([C@@H]3CCCN3C(=O)[C@@H](NC(=O)OC)C3CCCC3)[nH]2)cc1OCCOC` [Compound 8] was run?
**A.** < 1 nM

**Q.** With `COCCOc1c(-c2ccc(-c3cnc([C@@H]4CCCN4C(=O)[C@@H](c4ccccc4)N(C)C)[nH]3)cc2)ccc(-c2cnc([C@@H]3CCCN3C(=O)[C@@H](c3ccccc3)N(C)C)[nH]2)c1OCCOC` [Compound 15] as the compound, how does the EC50 read?
**A.** < 1 nM

**Q.** `COCCOc1c(-c2ccc(-c3cnc([C@@H]4CCCN4C(=O)[C@@H](NC(=O)OC)C4CCOCC4)[nH]3)cc2)ccc(-c2cnc([C@@H]3CCCN3C(=O)[C@@H](NC(=O)OC)C3CCOCC3)[nH]2)c1OCCOC` [Compound 14] was tested. Which EC50 did it give?
**A.** 1 to 9.9 nM

**Q.** Which EC50 does the source give for `COCCOc1cc(-c2cnc([C@@H]3CCCN3C(=O)[C@@H](NC(=O)OC)C(C)C)[nH]2)ccc1-c1ccc(-c2cnc([C@@H]3CCCN3C(=O)[C@@H](NC(=O)OC)C(C)C)[nH]2)cc1OCCOC` [Compound 1] here?
**A.** < 1 nM

**Q.** For `COCCOc1c(-c2ccc(-c3cnc([C@@H]4CCCN4C(=O)[C@H](C)NC(=O)OC)[nH]3)cc2)ccc(-c2cnc([C@@H]3CCCN3C(=O)[C@H](C)NC(=O)OC)[nH]2)c1OCCOC` [Compound 10], which EC50 is on record?
**A.** < 1 nM
